Data set [1] in a line: in vivo. Particulars: Sprague-Dawley, rat, po, 2 mg/kg.
Data set [2] is described as follows: in vivo. Particulars: Sprague-Dawley, rat, iv, 0.5 mg/kg.

Broadly, the bioavailability is the share of a dose that reaches the circulation, judged against a reference dose that is usually intravenous. Higher therefore signals good availability. The term clearance denotes the rate of elimination divided by the concentration. Read a high clearance as efficient removal. In data set [1], `NS(=O)(=O)c1ccc(-c2nsc(NC(=O)N(CCC(c3ccc(F)cc3)c3ccc(F)cc3)CCN3CCOCC3)n2)cc1` came in with a bioavailability of 39%. In data set [2], this molecule gave a clearance of 26.7 mL/min/kg.

The molecule `CS(=O)(=O)Nc1ccc(-c2csc(NC(=O)N(CCC(c3ccccc3)c3ccccc3)CCN3CCOCC3)n2)cc1` had a clearance in data set [2] of 63.3 mL/min/kg.

Values taken from ChEMBL document CHEMBL3091305, “Metabolism-guided discovery of a potent and orally bioavailable urea-based calcimimetic for the treatment of secondary hyperparathyroidism” (Bioorg Med Chem Lett, 2013).
